Source: ChEMBL document CHEMBL1201862, “PubChem BioAssay data set” (2004)
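48-hour exposure; five concentrations; linearly interpolated endpoints. GI50: concentration for 50% inhibition of growth.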 Active and inactive are the calls of the source. No stated cut-off is given here; in the data, active = GI50 up to about 1.1 µM and inactive = higher.

What was measured:
Test in all cases: DTP human tumour cell line panel, 48 h
786-0 = system: 786-0
BT-549 = system: BT-549
CCRF-CEM = system: CCRF-CEM
COLO 205 = system: COLO 205
HCT-15 = system: HCT-15
HOP-92 = system: HOP-92
Hs-578T = system: Hs-578T
MDA-MB-231 = system: MDA-MB-231
MDA-MB-435 = system: MDA-MB-435
MDA-N = system: MDA-N
NCI-H23 = system: NCI-H23
NCI-H460 = system: NCI-H460
OVCAR-8 = system: OVCAR-8
PC-3 = system: PC-3
RXF 393 = system: RXF 393
SF-295 = system: SF-295
SK-MEL-28 = system: SK-MEL-28
SK-MEL-2 = system: SK-MEL-2
TK-10 = system: TK-10

With C/C(=N\NC(=O)N/N=C(\C)c1ccccn1)c1ccccn1 the GI50 (786-0) was 2.66 µM (inactive), the GI50 (BT-549) was 1.15 µM (inactive) and the GI50 (CCRF-CEM) was 9.18 µM (inactive). The GI50 (COLO 205) was 0.069 µM (active), the GI50 (HCT-15) was 37.8 µM and the GI50 (HOP-92) was 0.279 µM (active). The GI50 (Hs-578T) was > 38.6 µM (inactive), the GI50 (MDA-MB-231) was 0.333 µM (active) and the GI50 (MDA-MB-435) was 0.0526 µM (active). For the same molecule, the GI50 (MDA-N) was 0.114 µM (active), the GI50 (NCI-H23) was 0.15 µM (active) and the GI50 (NCI-H460) was 0.953 µM (active). The GI50 (OVCAR-8) was 9.75 µM (inactive), the GI50 (PC-3) was 37.2 µM (inactive) and the GI50 (RXF 393) was 28.1 µM (inactive). The GI50 (SF-295) was 0.308 µM (active), the GI50 (SK-MEL-28) was 1.92 µM (inactive) and the GI50 (SK-MEL-2) was > 100 µM (inactive). For the same molecule, the GI50 (TK-10) was 0.11 µM (active).
O=C(CCC(=O)OCC1OC(O)(CC2OC(CO)C(O)C(O)C2O)C(O)C1O)OCc1ccccc1 (stereo not given) was tested, and the GI50 (786-0) was > 100 µM (inactive), the GI50 (BT-549) was > 100 µM (inactive) and the GI50 (CCRF-CEM) was 67.1 µM (inactive). The GI50 (COLO 205) was > 100 µM (inactive), the GI50 (HCT-15) was greater than 100 µM and the GI50 (HOP-92) was > 100 µM (inactive). For the same molecule, the GI50 (Hs-578T) was > 100 µM (inactive), the GI50 (MDA-MB-231) was > 100 µM (inactive) and the GI50 (MDA-MB-435) was > 100 µM (inactive). For the same molecule, the GI50 (MDA-N) was > 100 µM (inactive), the GI50 (NCI-H23) was > 100 µM (inactive) and the GI50 (NCI-H460) was > 100 µM (inactive). For the same molecule, the GI50 (OVCAR-8) was > 100 µM (inactive), the GI50 (PC-3) was > 100 µM (inactive) and the GI50 (RXF 393) was > 100 µM (inactive). For the same molecule, the GI50 (SF-295) was > 100 µM (inactive), the GI50 (SK-MEL-28) was > 100 µM (inactive) and the GI50 (SK-MEL-2) was > 100 µM (inactive). For the same molecule, the GI50 (TK-10) was > 100 µM (inactive).
COC(=O)C1(OC(=O)Sc2ccccc2)CCN(C)CC1 was tested, and the GI50 (786-0) was 19 µM (inactive), the GI50 (BT-549) was 1.5 µM (inactive) and the GI50 (CCRF-CEM) was 1.84 µM (inactive). The GI50 (COLO 205) was 9.82 µM (inactive), the GI50 (HCT-15) was 34.9 µM and the GI50 (Hs-578T) was 21.1 µM (inactive). The GI50 (MDA-MB-231) was 16.9 µM (inactive), the GI50 (MDA-MB-435) was 13.8 µM (inactive) and the GI50 (MDA-N) was 17.8 µM (inactive). The GI50 (NCI-H23) was 14.1 µM (inactive), the GI50 (NCI-H460) was 23.6 µM (inactive) and the GI50 (OVCAR-8) was 16.7 µM (inactive). The GI50 (PC-3) was 7.57 µM (inactive), the GI50 (RXF 393) was 14.3 µM (inactive) and the GI50 (SF-295) was 25.2 µM (inactive). For the same molecule, the GI50 (SK-MEL-28) was 27.9 µM (inactive), the GI50 (SK-MEL-2) was 58.3 µM (inactive) and the GI50 (TK-10) was 41.3 µM (inactive).
OCC1=C[C@@](COCc2ccccc2)(OCc2ccccc2)[C@@H](OCc2ccccc2)[C@@H]1OCc1ccccc1 was tested, and the GI50 (786-0) was 20.7 µM (inactive), the GI50 (BT-549) was 24.7 µM (inactive) and the GI50 (CCRF-CEM) was 2.81 µM (inactive). The GI50 (COLO 205) was 11.6 µM (inactive), the GI50 (HCT-15) was 17.1 µM and the GI50 (Hs-578T) was 21.9 µM (inactive). For the same molecule, the GI50 (MDA-MB-231) was 9.08 µM (inactive), the GI50 (MDA-MB-435) was 6.64 µM (inactive) and the GI50 (MDA-N) was 17.2 µM (inactive). For the same molecule, the GI50 (NCI-H23) was 16.6 µM (inactive), the GI50 (NCI-H460) was 18.8 µM (inactive) and the GI50 (OVCAR-8) was 36.2 µM (inactive). For the same molecule, the GI50 (PC-3) was 15.1 µM (inactive), the GI50 (RXF 393) was 3.64 µM (inactive) and the GI50 (SF-295) was 13.2 µM (inactive). The GI50 (SK-MEL-28) was 35.3 µM (inactive), the GI50 (SK-MEL-2) was 12.7 µM (inactive) and the GI50 (TK-10) was 21.3 µM (inactive).
For Cc1ccc2nc(NC(=O)/C(Cc3nc4ccc(Cl)cc4nc3O)=N\NC(C)(C)C)sc2c1, the GI50 (786-0) was > 100 µM (inactive), the GI50 (BT-549) was > 100 µM (inactive) and the GI50 (CCRF-CEM) was > 100 µM (inactive). The GI50 (COLO 205) was > 100 µM (inactive), the GI50 (HCT-15) was 90.6 µM and the GI50 (HOP-92) was > 100 µM (inactive). For the same molecule, the GI50 (Hs-578T) was 18.2 µM (inactive), the GI50 (MDA-MB-231) was > 100 µM (inactive) and the GI50 (MDA-MB-435) was > 100 µM (inactive). For the same molecule, the GI50 (MDA-N) was > 100 µM (inactive), the GI50 (NCI-H23) was > 100 µM (inactive) and the GI50 (NCI-H460) was > 100 µM (inactive). The GI50 (OVCAR-8) was > 100 µM (inactive), the GI50 (PC-3) was > 100 µM (inactive) and the GI50 (RXF 393) was > 100 µM (inactive). The GI50 (SF-295) was 36.1 µM (inactive), the GI50 (SK-MEL-28) was > 100 µM (inactive) and the GI50 (SK-MEL-2) was > 100 µM (inactive).
With O=C(NNC(=O)c1ccccc1O)c1ccc(O)cc1 the GI50 (786-0) was 46.8 µM (inactive), the GI50 (BT-549) was 40.6 µM (inactive) and the GI50 (CCRF-CEM) was 70.8 µM (inactive). The GI50 (COLO 205) was 47.8 µM (inactive), the GI50 (HCT-15) was 19.2 µM and the GI50 (Hs-578T) was > 100 µM (inactive). For the same molecule, the GI50 (MDA-MB-231) was 10.2 µM (inactive), the GI50 (MDA-MB-435) was 69.7 µM (inactive) and the GI50 (MDA-N) was > 100 µM (inactive). For the same molecule, the GI50 (NCI-H460) was 31.5 µM (inactive), the GI50 (OVCAR-8) was 21.1 µM (inactive) and the GI50 (PC-3) was 37.6 µM (inactive). For the same molecule, the GI50 (RXF 393) was > 100 µM (inactive), the GI50 (SF-295) was 33 µM (inactive) and the GI50 (SK-MEL-28) was > 100 µM (inactive). For the same molecule, the GI50 (SK-MEL-2) was 22.5 µM (inactive) and the GI50 (TK-10) was > 100 µM (inactive).
CCCCCCCCCCCCOCCOCCOCCOCCOCCOCC(=O)NC(Cc1ccccc1)C(=O)Oc1ccc([N+](=O)[O-])cc1 (stereo not given) was tested, and the GI50 (786-0) was 34.9 µM (inactive), the GI50 (BT-549) was 25.5 µM (inactive) and the GI50 (CCRF-CEM) was 31.7 µM (inactive). The GI50 (COLO 205) was 15.8 µM (inactive), the GI50 (HCT-15) was 37 µM and the GI50 (HOP-92) was 26.7 µM (inactive). For the same molecule, the GI50 (Hs-578T) was 41.2 µM (inactive), the GI50 (MDA-MB-231) was 60.3 µM (inactive) and the GI50 (MDA-MB-435) was 30.6 µM (inactive). The GI50 (MDA-N) was 27.7 µM (inactive), the GI50 (NCI-H23) was 32.3 µM (inactive) and the GI50 (NCI-H460) was 30.5 µM (inactive). For the same molecule, the GI50 (OVCAR-8) was 44.5 µM (inactive), the GI50 (PC-3) was 31 µM (inactive) and the GI50 (RXF 393) was 31.8 µM (inactive). For the same molecule, the GI50 (SF-295) was 39.1 µM (inactive), the GI50 (SK-MEL-2) was 23.8 µM (inactive) and the GI50 (TK-10) was 38.3 µM (inactive).
For CC1CCC2C(C(=O)O[C@H]3C4CCO[C@@H](OC5OC(CO)C(O)C(O)C5O)C4[C@@]4(CO)O[C@@H]34)=CO[C@@H](OC3OC(CO)C(O)C(O)C3O)C12 (stereo not given in full), the GI50 (786-0) was > 10 µM (inactive), the GI50 (BT-549) was > 10 µM (inactive) and the GI50 (CCRF-CEM) was > 10 µM (inactive). The GI50 (HCT-15) was greater than 10 µM, the GI50 (HOP-92) was > 10 µM (inactive) and the GI50 (Hs-578T) was > 10 µM (inactive). For the same molecule, the GI50 (MDA-MB-231) was > 10 µM (inactive), the GI50 (MDA-MB-435) was > 10 µM (inactive) and the GI50 (MDA-N) was > 10 µM (inactive). The GI50 (NCI-H23) was > 10 µM (inactive), the GI50 (NCI-H460) was > 10 µM (inactive) and the GI50 (OVCAR-8) was > 10 µM (inactive). The GI50 (PC-3) was > 10 µM (inactive), the GI50 (RXF 393) was > 10 µM (inactive) and the GI50 (SF-295) was > 10 µM (inactive). For the same molecule, the GI50 (SK-MEL-28) was > 10 µM (inactive), the GI50 (SK-MEL-2) was > 10 µM (inactive) and the GI50 (TK-10) was > 10 µM (inactive).
